Test results reported in patent publication US8247211B2, “Glycopeptide antibiotics” (American Cyanamid Company, priority 2001, dated 2012).
Converted amounts (≈) assume the structure as drawn.

Key:
Assay in all cases: In vitro antibacterial evaluation: minimum inhibitory concentration (MIC), broth dilution method
Format in all cases: cell-based
Settings in all cases: broth dilution, 18 hours at 35° C.
Streptococcus sp. = test system: Streptococcus sp.
In short: (§1)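 Broth dilution per NCCLS M7-A2 in Muller-Hinton II […], inoculum 5×10^5 CFU/mL, antibiotic tested over 64-0.06 μg/mL. MIC is taken as the lowest concentration that inhibits growth. Panel includes recent clinical isolates resistant to methicillin, penicillin and/or vancomycin.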

Staphylococcus sp. = test system: Staphylococcus sp.
In short: as §1

Enterococcus sp. = test system: Enterococcus sp.
In short: as §1

Escherichia coli = test system: Escherichia coli
[1] = Streptococcus agalactiae (GC 4564)
[2] = Streptococcus pneumoniae (ATCC 6301)
[3] = Streptococcus pneumoniae (GC 1894)
[4] = Streptococcus pneumoniae (GC 4565)
[5] = Streptococcus pyogenes (GC 4563)
[6] = Enterococcus faecalis (ATCC 29212)
[7] = Enterococcus faecalis (GC 2242)
[8] = Enterococcus faecalis (GC 2691)
[9] = Enterococcus faecalis (GC 4553)
[10] = Enterococcus faecalis (GC 6189)

## CC(c1ccccc1)C1NC(=O)CNC(=O)C(CO)NC(=O)C(C(O)C2CNC(=N)N2C2OC(CO)C(O)C(O)C2O)NC(=O)C(C(O)C2CNC(=N)N2)NC(=O)C(Cc2ccc3oc(-c4cccc(F)c4)nc3c2)NC1=O (stereo not drawn) [Example 30, Cyclo[3-[2-(3-fluorophenyl)-1,3-benzoxazol-5-yl]alanyl-3-(2-iminoimidazolidin-4-yl)seryl-3-(3-hexopyranosyl-2-iminoimidazolidin-4-yl)serylserylglycyl-β-methylphenylalanyl]]
Streptococcus sp.; [1]
  MIC Streptococcus agalactiae (GC 4564): 8 µg/mL (≈ 7.34 µM)
Streptococcus sp.; [2]
  MIC Streptococcus pneumoniae (ATCC 6301): 8 µg/mL (≈ 7.34 µM)
Streptococcus sp.; [3]
  MIC Streptococcus pneumoniae (GC 1894): 16 µg/mL (≈ 14.7 µM)
Streptococcus sp.; [4]
  MIC Streptococcus pneumoniae (GC 4565): 16 µg/mL (≈ 14.7 µM)
Streptococcus sp.; [5]
  MIC Streptococcus pyogenes (GC 4563): 4 µg/mL (≈ 3.67 µM)
Streptococcus sp.
  MIC Streptococcus agalactiae (GC 4564): 8 µg/mL (≈ 7.34 µM)
  MIC Streptococcus pneumoniae (ATCC 6301): 8 µg/mL (≈ 7.34 µM)
  MIC Streptococcus pneumoniae (GC 1894): 16 µg/mL (≈ 14.7 µM)
  MIC Streptococcus pneumoniae (GC 4565): 16 µg/mL (≈ 14.7 µM)
  MIC Streptococcus pyogenes (GC 4563): 4 µg/mL (≈ 3.67 µM)
Staphylococcus sp.; strain GC 4543
  MIC Staphylococcus aureus-SMITH (GC 4543): 8 µg/mL (≈ 7.34 µM)
Staphylococcus sp.; strain GC 4546
  MIC Staphylococcus haemolyticus (GC 4546): 4 µg/mL (≈ 3.67 µM)
Staphylococcus sp.; strain GC 4547
  MIC Coagulase Negative Staphylococcus (GC 4547): 8 µg/mL (≈ 7.34 µM)
Staphylococcus sp.; strain GC 4548
  MIC Coagulase Negative Staphylococcus (GC 4548): 4 µg/mL (≈ 3.67 µM)
Staphylococcus sp.; strain GC 4549
  MIC Coagulase Negative Staphylococcus (GC 4549): 16 µg/mL (≈ 14.7 µM)
Staphylococcus sp.; strain GC 4551
  MIC Coagulase Negative Staphylococcus (GC 4551): 8 µg/mL (≈ 7.34 µM)
Staphylococcus sp.; strain GC 6257
  MIC Coagulase Negative Staphylococcus (GC 6257): 4 µg/mL (≈ 3.67 µM)
Staphylococcus sp.; strain SMITH GC 4543
  MIC Staphylococcus aureus-SMITH (GC 4543): 8 µg/mL (≈ 7.34 µM)
Enterococcus sp.; Enterococcus avium (GC 4558)
  MIC Enterococcus avium (GC 4558): 16 µg/mL (≈ 14.7 µM)
Enterococcus sp.; [6]
  MIC Enterococcus faecalis (ATCC 29212): 64 µg/mL (≈ 58.7 µM)
Enterococcus sp.; [7]
  MIC Enterococcus faecalis (GC 2242): 32 µg/mL (≈ 29.4 µM)
Enterococcus sp.; [8]
  MIC Enterococcus faecalis (GC 2691): 32 µg/mL (≈ 29.4 µM)
Enterococcus sp.; Enterococcus faecalis (GC 3059)
  MIC Enterococcus faecalis (GC 3059): 64 µg/mL (≈ 58.7 µM)
Enterococcus sp.; Enterococcus faecalis (GC 4552)
  MIC Enterococcus faecalis (GC 4552): 64 µg/mL (≈ 58.7 µM)
Enterococcus sp.; [9]
  MIC Enterococcus faecalis (GC 4553): 16 µg/mL (≈ 14.7 µM)
Enterococcus sp.; Enterococcus faecalis (GC 4554)
  MIC Enterococcus faecalis (GC 4554): 64 µg/mL (≈ 58.7 µM)
Enterococcus sp.; [10]
  MIC Enterococcus faecalis (GC 6189): 32 µg/mL (≈ 29.4 µM)
Enterococcus sp.; Enterococcus faecium (GC 2243)
  MIC Enterococcus faecium (GC 2243): 32 µg/mL (≈ 29.4 µM)
Enterococcus sp.; Enterococcus faecium (GC 4556)
  MIC Enterococcus faecium (GC 4556): 64 µg/mL (≈ 58.7 µM)
Enterococcus sp.; Enterococcus faecium (GC 4557)
  MIC Enterococcus faecium (GC 4557): 8 µg/mL (≈ 7.34 µM)
Enterococcus sp.
  MIC Enterococcus avium (GC 4558): 16 µg/mL (≈ 14.7 µM)
  MIC Enterococcus faecalis (ATCC 29212): 64 µg/mL (≈ 58.7 µM)
  MIC Enterococcus faecalis (GC 2242): 32 µg/mL (≈ 29.4 µM)
  MIC Enterococcus faecalis (GC 2691): 32 µg/mL (≈ 29.4 µM)
  MIC Enterococcus faecalis (GC 3059): 64 µg/mL (≈ 58.7 µM)
  MIC Enterococcus faecalis (GC 4552): 64 µg/mL (≈ 58.7 µM)
  MIC Enterococcus faecalis (GC 4553): 16 µg/mL (≈ 14.7 µM)
  MIC Enterococcus faecalis (GC 4554): 64 µg/mL (≈ 58.7 µM)
  MIC Enterococcus faecalis (GC 6189): 32 µg/mL (≈ 29.4 µM)
  MIC Enterococcus faecium (GC 2243): 32 µg/mL (≈ 29.4 µM)
  MIC Enterococcus faecium (GC 4556): 64 µg/mL (≈ 58.7 µM)
  MIC Enterococcus faecium (GC 4557): 8 µg/mL (≈ 7.34 µM)
Escherichia coli
  MIC Escherichia coli (ATCC 25922): 32 µg/mL (≈ 29.4 µM)
  MIC Escherichia coli (GC 4559): 32 µg/mL (≈ 29.4 µM)
  MIC Escherichia coli (GC 4560): 8 µg/mL (≈ 7.34 µM)

## CC(c1ccccc1)C1NC(=O)CNC(=O)C(CO)NC(=O)C(C(O)C2CNC(=N)N2C2OC(CO)C(O)C(O)C2O)NC(=O)C(C(O)C2CNC(=N)N2)NC(=O)C(Cc2ccc3oc(-c4ccc(OCc5ccccc5)cc4)nc3c2)NC1=O (stereo not drawn) [Example 31, Cyclo[3-[2-[4-(phenylmethoxy)phenyl]-1,3-benzoxazol-5-yl]alanyl-3-(2-iminoimidazolidin-4-yl)seryl-3-(3-hexopyranosyl-2-iminoimidazolidin-4-yl)serylserylglycyl-β-methyl-phenylalanyl]]
Streptococcus sp.; [1]
  MIC Streptococcus agalactiae (GC 4564): 32 µg/mL (≈ 27.2 µM)
Streptococcus sp.; [2]
  MIC Streptococcus pneumoniae (ATCC 6301): 16 µg/mL (≈ 13.6 µM)
Streptococcus sp.; [3]
  MIC Streptococcus pneumoniae (GC 1894): 32 µg/mL (≈ 27.2 µM)
Streptococcus sp.; [4]
  MIC Streptococcus pneumoniae (GC 4565): 64 µg/mL (≈ 54.3 µM)
Streptococcus sp.; [5]
  MIC Streptococcus pyogenes (GC 4563): 8 µg/mL (≈ 6.79 µM)
Streptococcus sp.
  MIC Streptococcus agalactiae (GC 4564): 32 µg/mL (≈ 27.2 µM)
  MIC Streptococcus pneumoniae (ATCC 6301): 16 µg/mL (≈ 13.6 µM)
  MIC Streptococcus pneumoniae (GC 1894): 32 µg/mL (≈ 27.2 µM)
  MIC Streptococcus pneumoniae (GC 4565): 64 µg/mL (≈ 54.3 µM)
  MIC Streptococcus pyogenes (GC 4563): 8 µg/mL (≈ 6.79 µM)
Staphylococcus sp.
  MIC Coagulase Negative Staphylococcus (GC 4547): 8 µg/mL (≈ 6.79 µM)
  MIC Coagulase Negative Staphylococcus (GC 4548): 8 µg/mL (≈ 6.79 µM)
  MIC Coagulase Negative Staphylococcus (GC 4549): 16 µg/mL (≈ 13.6 µM)
  MIC Coagulase Negative Staphylococcus (GC 4551): 16 µg/mL (≈ 13.6 µM)
  MIC Coagulase Negative Staphylococcus (GC 6257): 4 µg/mL (≈ 3.39 µM)
  MIC Staphylococcus aureus SMITH (GC 4543): 16 µg/mL (≈ 13.6 µM)
  MIC Staphylococcus haemolyticus (GC 4546): 8 µg/mL (≈ 6.79 µM)
Staphylococcus sp.; strain SMITH GC 4543
  MIC Staphylococcus aureus-SMITH (GC 4543): 16 µg/mL (≈ 13.6 µM)
Enterococcus sp.; Enterococcus avium (GC 4558)
  MIC Enterococcus avium (GC 4558): 8 µg/mL (≈ 6.79 µM)
Enterococcus sp.; [6]
  MIC Enterococcus faecalis (ATCC 29212): 64 µg/mL (≈ 54.3 µM)
Enterococcus sp.; [7]
  MIC Enterococcus faecalis (GC 2242): 64 µg/mL (≈ 54.3 µM)
Enterococcus sp.; [8]
  MIC Enterococcus faecalis (GC 2691): 64 µg/mL (≈ 54.3 µM)
Enterococcus sp.; [9]
  MIC Enterococcus faecalis (GC 4553): 16 µg/mL (≈ 13.6 µM)
Enterococcus sp.; [10]
  MIC Enterococcus faecalis (GC 6189): 64 µg/mL (≈ 54.3 µM)
Enterococcus sp.; Enterococcus faecium (GC 2243)
  MIC Enterococcus faecium (GC 2243): 32 µg/mL (≈ 27.2 µM)
Enterococcus sp.; Enterococcus faecium (GC 4556)
  MIC Enterococcus faecium (GC 4556): 4 µg/mL (≈ 3.39 µM)
Enterococcus sp.; Enterococcus faecium (GC 4557)
  MIC Enterococcus faecium (GC 4557): 4 µg/mL (≈ 3.39 µM)
Enterococcus sp.
  MIC Enterococcus avium (GC 4558): 8 µg/mL (≈ 6.79 µM)
  MIC Enterococcus faecalis (ATCC 29212): 64 µg/mL (≈ 54.3 µM)
  MIC Enterococcus faecalis (GC 2242): 64 µg/mL (≈ 54.3 µM)
  MIC Enterococcus faecalis (GC 2691): 64 µg/mL (≈ 54.3 µM)
  MIC Enterococcus faecalis (GC 4553): 16 µg/mL (≈ 13.6 µM)
  MIC Enterococcus faecalis (GC 6189): 64 µg/mL (≈ 54.3 µM)
  MIC Enterococcus faecium (GC 2243): 32 µg/mL (≈ 27.2 µM)
  MIC Enterococcus faecium (GC 4556): 4 µg/mL (≈ 3.39 µM)
  MIC Enterococcus faecium (GC 4557): 4 µg/mL (≈ 3.39 µM)
Escherichia coli
  MIC Escherichia coli (GC 4560): 32 µg/mL (≈ 27.2 µM)
